Experimental data reported in patent publication US8461189B2, “Pyridyl derivatives as histone deacetylase inhibitors” (Merck Sharp & Dohme Corp., priority 2007, dated 2013).
pIC50: −log10 of the molar value. Read-outs that look alike come from different tables or passages of the source.

Columns and labels:
HCT-116 cells = assay: ATP (Vialight) cell proliferation assay, HCT-116; assay type: cell-based; conditions: Homo sapiens
Procedure: (§1) The novel compounds of the present invention were tested for their ability to inhibit proliferation of the human cervical cancer (HeLa) and colon carcinoma (HCT116) cells.
(§2) In this assay, also referred to as the Vialight Assay, cellular ATP levels are measured as a means of quantifying cellular proliferation. This assay makes use of a bioluminescent method from Cambrex (ViaLight PLUS, cat. #LT07-121). In the presence of ATP, luciferase converts luciferin to oxyluciferin and light. The amount of light produced (emission at 565 nm) is measured and correlates with a relative amount of proliferation. Human cervical cancer (HeLa) or colon carcinoma (HCT116) cells were incubated with vehicle or increasing concentrations of compound for 48, 72 or 96 hours. Cell proliferation was quantified by adding the cell lysis reagent (provided in the Vialight assay kit) directly to culture wells, followed by addition of the ATP-monitoring reagent (containing luciferase/luciferin). The amount of light produced is then measured (emission at 565 nm). The quantity of light produced, as measured by […], is directly proportional to the number of living cells in culture.

human HDAC1 complex = biological target: T1, human HDAC1 complex (Homo sapiens, UniProt Q13547); assay: HDAC1-Flag in vitro deacetylation assay; assay type: biochemical
T1 construct: Flag; made in house
Procedure: Novel compounds were tested for their ability to inhibit histone deacetylase, subtype 1 (HDAC1) using an in vitro deacetylation assay. The enzyme source for this assay was an epitope-tagged human HDAC1 complex immuno-purified from stably expressing mammalian cells. The substrate consisted of a commercial product containing an acetylated lysine side chain (BIOMOL Research Laboratories, Inc., Plymouth Meeting, Pa.). Upon deacetylation of the substrate by incubation with the purified HDAC1 complex, a fluorophore is produced that is directly proportional to the level of deacetylation. Using a substrate concentration at the Km for the enzyme preparation, the deacetylation assay was performed in the presence of increasing concentrations of novel compounds to semi-quantitatively determine the concentration of compound required for 50% inhibition (IC50) of the deacetylation reaction.

Cyp 2D6 = Cyp 2D6 (Homo sapiens, UniProt P10635); assay: Cyp inhibition, Cyp2D6; assay type: in vitro ADME; conditions: read-out: Percent Cyp inhibition, 2D6
MK-499 binding = MK-499 binding (Homo sapiens, UniProt Q12809); assay: MK-499 binding; conditions: read-out: inflection point for MK-499 binding
Cyp 2C9 = Cyp 2C9 (Homo sapiens, UniProt P11712); assay: Cyp inhibition, Cyp2C9; assay type: in vitro ADME; conditions: read-out: Percent Cyp inhibition, 2C9
Cyp3A4 = Cyp3A4 (Homo sapiens, UniProt P08684); assay: Cyp inhibition, Cyp3A4; assay type: in vitro ADME; conditions: read-out: Percent Cyp inhibition, Cyp3A4
[1] = system: human cervical cancer (HeLa) or colon carcinoma (HCT116) cells; assay: Prol-72 hr, ATP (Vialight) proliferation assay, cell line not given; assay type: cell-based; conditions: Table 2, IP = inflection point, cell line not stated
Procedure: as §1, §2

[2] = Table 2, IP = inflection point, read-out: HDAC1 IP*
[3] = Table 3, IP = inflection point, read-out: HDAC 1 IP*

T1 sequence (Q13547 whole entry, one chain of several): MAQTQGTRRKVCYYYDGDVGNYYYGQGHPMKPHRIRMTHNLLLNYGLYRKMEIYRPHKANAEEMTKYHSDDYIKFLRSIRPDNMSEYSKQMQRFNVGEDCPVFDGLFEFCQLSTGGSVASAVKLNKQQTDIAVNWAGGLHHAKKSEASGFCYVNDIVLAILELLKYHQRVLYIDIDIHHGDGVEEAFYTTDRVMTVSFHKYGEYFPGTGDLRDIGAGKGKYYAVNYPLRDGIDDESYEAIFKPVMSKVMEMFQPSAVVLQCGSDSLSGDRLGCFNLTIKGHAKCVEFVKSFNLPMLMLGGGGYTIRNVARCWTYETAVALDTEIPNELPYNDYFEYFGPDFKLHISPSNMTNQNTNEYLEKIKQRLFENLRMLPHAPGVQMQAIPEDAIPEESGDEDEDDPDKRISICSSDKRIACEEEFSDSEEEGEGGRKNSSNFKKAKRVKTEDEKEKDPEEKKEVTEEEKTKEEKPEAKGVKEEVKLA
Sequence of MK-499 binding (Q12809 whole entry): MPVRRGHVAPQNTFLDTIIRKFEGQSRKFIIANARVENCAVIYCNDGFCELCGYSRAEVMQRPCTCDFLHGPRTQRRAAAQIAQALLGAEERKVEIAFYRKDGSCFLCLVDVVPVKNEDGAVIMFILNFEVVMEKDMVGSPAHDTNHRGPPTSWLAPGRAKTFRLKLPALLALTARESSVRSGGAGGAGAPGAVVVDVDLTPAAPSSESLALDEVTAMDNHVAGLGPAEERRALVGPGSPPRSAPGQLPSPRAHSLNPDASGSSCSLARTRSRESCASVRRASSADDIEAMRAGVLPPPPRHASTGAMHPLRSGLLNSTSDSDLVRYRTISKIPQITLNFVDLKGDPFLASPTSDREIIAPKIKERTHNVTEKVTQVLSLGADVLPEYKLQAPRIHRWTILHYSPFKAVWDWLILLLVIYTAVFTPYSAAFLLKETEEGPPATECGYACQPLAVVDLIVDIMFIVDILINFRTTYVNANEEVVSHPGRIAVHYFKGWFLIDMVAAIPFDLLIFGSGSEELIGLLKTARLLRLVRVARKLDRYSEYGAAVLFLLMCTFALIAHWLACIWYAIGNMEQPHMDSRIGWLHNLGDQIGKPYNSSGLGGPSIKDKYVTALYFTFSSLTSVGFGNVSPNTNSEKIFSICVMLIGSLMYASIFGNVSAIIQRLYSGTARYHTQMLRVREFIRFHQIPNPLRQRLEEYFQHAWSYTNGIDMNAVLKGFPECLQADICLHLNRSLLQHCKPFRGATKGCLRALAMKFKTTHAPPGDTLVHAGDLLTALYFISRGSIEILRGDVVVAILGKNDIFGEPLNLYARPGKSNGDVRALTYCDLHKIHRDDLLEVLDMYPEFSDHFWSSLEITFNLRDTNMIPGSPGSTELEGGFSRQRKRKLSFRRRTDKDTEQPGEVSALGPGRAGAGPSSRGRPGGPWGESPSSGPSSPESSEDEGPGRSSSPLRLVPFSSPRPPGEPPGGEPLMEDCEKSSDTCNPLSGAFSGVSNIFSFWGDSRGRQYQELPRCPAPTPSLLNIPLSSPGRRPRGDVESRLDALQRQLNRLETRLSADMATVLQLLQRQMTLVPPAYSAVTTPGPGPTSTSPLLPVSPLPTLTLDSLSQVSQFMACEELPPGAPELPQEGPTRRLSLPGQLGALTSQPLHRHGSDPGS
Sequence of Cyp 2D6 (P10635 whole entry): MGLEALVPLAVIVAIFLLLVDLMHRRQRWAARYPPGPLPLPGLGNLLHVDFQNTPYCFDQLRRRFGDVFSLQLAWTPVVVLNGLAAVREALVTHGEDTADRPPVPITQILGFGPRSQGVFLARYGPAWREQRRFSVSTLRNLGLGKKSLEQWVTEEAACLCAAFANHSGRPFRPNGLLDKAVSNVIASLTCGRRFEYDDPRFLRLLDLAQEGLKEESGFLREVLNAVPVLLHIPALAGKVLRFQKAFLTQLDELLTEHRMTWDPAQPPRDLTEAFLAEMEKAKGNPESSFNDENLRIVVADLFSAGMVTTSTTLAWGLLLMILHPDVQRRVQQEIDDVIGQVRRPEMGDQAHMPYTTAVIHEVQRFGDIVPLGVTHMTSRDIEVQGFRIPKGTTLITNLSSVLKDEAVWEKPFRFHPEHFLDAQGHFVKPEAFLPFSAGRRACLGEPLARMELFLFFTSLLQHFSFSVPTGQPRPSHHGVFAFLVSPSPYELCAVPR
Sequence of Cyp 2C9 (P11712 whole entry): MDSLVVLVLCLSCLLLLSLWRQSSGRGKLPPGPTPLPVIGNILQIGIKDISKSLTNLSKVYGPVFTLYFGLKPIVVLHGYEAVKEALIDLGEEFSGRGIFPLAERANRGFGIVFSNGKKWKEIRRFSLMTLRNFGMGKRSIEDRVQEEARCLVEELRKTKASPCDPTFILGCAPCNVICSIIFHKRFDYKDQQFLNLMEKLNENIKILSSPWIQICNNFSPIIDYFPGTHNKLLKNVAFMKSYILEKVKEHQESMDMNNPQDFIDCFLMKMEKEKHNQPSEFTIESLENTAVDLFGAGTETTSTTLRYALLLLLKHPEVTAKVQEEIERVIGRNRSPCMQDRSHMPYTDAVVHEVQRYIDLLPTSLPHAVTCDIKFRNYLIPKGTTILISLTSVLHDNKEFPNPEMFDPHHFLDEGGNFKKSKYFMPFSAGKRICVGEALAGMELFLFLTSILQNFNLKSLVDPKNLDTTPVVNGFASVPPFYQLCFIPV
Sequence of Cyp3A4 (P08684 whole entry, species assumed): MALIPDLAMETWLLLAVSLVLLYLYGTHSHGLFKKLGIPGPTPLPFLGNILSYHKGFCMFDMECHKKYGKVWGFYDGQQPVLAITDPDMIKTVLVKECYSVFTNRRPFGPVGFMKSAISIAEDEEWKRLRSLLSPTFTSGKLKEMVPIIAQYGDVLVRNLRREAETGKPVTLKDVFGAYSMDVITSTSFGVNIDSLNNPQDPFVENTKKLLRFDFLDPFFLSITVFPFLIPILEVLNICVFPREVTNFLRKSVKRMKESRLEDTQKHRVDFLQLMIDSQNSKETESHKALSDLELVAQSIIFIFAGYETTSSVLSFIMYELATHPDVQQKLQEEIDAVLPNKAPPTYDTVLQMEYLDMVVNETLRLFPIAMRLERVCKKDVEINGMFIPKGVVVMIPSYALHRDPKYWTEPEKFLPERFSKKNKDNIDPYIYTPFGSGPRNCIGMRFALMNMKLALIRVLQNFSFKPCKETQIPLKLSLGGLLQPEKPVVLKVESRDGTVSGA

| SMILES | pIC50 (HCT-116 cells) | pIC50 (human HDAC1 complex; read-out: in vitro HDAC1 IC50) | inhibition at 10 µM (Cyp 2D6) [%] | pIC50 (MK-499 binding) | inhibition at 10 µM (Cyp 2C9) [%] | inhibition at 10 µM (Cyp3A4) [%] | pIC50 [1] | pIC50 (human HDAC1 complex; [2]) | pIC50 (human HDAC1 complex; [3]) |
| --- | --- | --- | --- | --- | --- | --- | --- | --- | --- |
| CC(=O)Nc1ccc(C(=O)Nc2nc(-c3ccccc3)ccc2N)cc1 [4-(Acetylamino)-N-(3-amino-6-phenylpyridin-2-yl)benzamide] | 5.69 | 7.07 |  |  |  |  |  |  |  |
| Nc1ccc(-c2ccccc2)nc1NC(=O)c1ccc(CNC(=O)OCc2ccccc2)cc1 [Benzyl(4-{[(3-amino-6-phenylpyridin-2-yl)amino]carbonyl}benzyl)carbamate] | 6.23 | 7.49 | 24 | 4.91 | 25 | 7 |  |  |  |
| COC(=O)NCc1ccc(C(=O)Nc2nc(-c3ccccc3)ccc2N)cc1 [Methyl(4-{[(3-amino-6-phenylpyridin-2-yl)amino]carbonyl}benzyl)carbamate] | 5.92 | 7.43 | 27 | < 5.00 | 49 | 29 |  |  |  |
| CC(C)(C)c1ccc(C(=O)Nc2nc(-c3ccccc3)ccc2N)cc1 [N-(3-amino-6-phenyl-2-pyridinyl)-4-(1,1-dimethylethyl) benzamide] |  |  |  |  |  |  | 4.70 | 6.63 |  |
| Nc1ccc(-c2ccccc2)nc1NC(=O)c1ccccc1 [N-(3-amino-6-phenylpyridin-2-yl)benzamide] |  |  |  |  |  |  |  | 5.94 |  |
| Nc1ccc(-c2ccccc2)nc1NC(=O)c1ccc(CNC(=O)OCc2cccnc2)cc1 [Pyridin-3-ylmethyl[(4-{[(3-amino-6-phenylpyridin-2-yl)amino]carbonyl}phenyl)methyl]carbamate] | 6.24 | 7.08 | 55 | < 4.52 | 54 | 46 |  |  |  |
| CCOC(=O)NCc1ccc(C(=O)Nc2nc(-c3ccccc3)ccc2N)cc1 [ethyl (4-{[(3-amino-6-phenylpyridin-2-yl)amino]carbonyl}benzyl)carbamate] |  |  |  |  |  |  |  |  | 7.96 |
| Nc1ccc(-c2ccccc2)nc1NC(=O)c1ccc(CNC(=O)Oc2ccccc2)cc1 [phenyl (4-{[(3-amino-6-phenylpyridin-2-yl)amino]carbonyl}benzyl)carbamate] |  |  |  |  |  |  |  |  | 7.92 |

Now from value to compound, other results behind:

| pIC50 (HCT-116 cells) | pIC50 (human HDAC1 complex; read-out: in vitro HDAC1 IC50) | inhibition at 10 µM (Cyp 2D6) [%] | pIC50 (MK-499 binding) | inhibition at 10 µM (Cyp 2C9) [%] | inhibition at 10 µM (Cyp3A4) [%] | pIC50 [1] | pIC50 (human HDAC1 complex; [2]) | SMILES | pIC50 (human HDAC1 complex; [3]) |
| --- | --- | --- | --- | --- | --- | --- | --- | --- | --- |
| 6.25 | 7.46 | 24 | 2.60 | 47 | 27 |  |  | Nc1ccc(-c2ccccc2)nc1NC(=O)c1ccc(CNC(=O)OCc2ccccn2)cc1 [Pyridin-2-ylmethyl(4-{[(3-amino-6-phenylpyridin-2-yl)amino]carbonyl}benzyl)carbamate] |  |
|  |  |  |  |  |  | 4.70 | 6.71 | COC(=O)c1ccc(C(=O)Nc2nc(-c3ccccc3)ccc2N)cc1 [benzoic acid, methyl 4-[[(3-amino-6-phenyl-2-pyridinyl)amino]carbonyl]benzoate] |  |
| 6.25 | 7.25 |  |  |  |  |  |  | Nc1ccc(-c2cccs2)nc1NC(=O)c1ccc(CNC(=O)OCc2cccnc2)cc1 [pyridin-3-ylmethyl {[4-({[3-amino-6-(2-thienyl)pyridin-2-yl]amino}carbonyl)phenyl]methyl}carbamate] |  |
